{
  "source": "patent US5834430A",
  "about": "“Potentiation of antibiotics” (BiosYnth S.r.l., priority 1995, dated 1998)",
  "assay_in_all_cases": "Checkerboard microdilution MIC of antibiotic with peptide",
  "key": {"E. cloa 12645": {"tested_on": "E. cloa 12645", "type": "cell-based", "settings": "Enterobacter cloacae, no peptide (None, 0)", "method": "(§1) The general assay medium was L broth (pH7.2) which contained 10 g of tryptone (Difco Laboratories, Detroit, Mich.), 5 g of yeast extract (Oxoid Ltd., Hampshire, UK) and 5 g of sodium chloride per liter. After an incubation time of 18 hours at 37° C., the growth of each microtiter well is measured with a Titerteck Multiscan spectrophotometer at 405 nm. Before reading, the spectrophotometer was blanked with corresponding uninoculated drug-containing media. The minimum inhibitory concentration (MIC) of an antibiotic was defined as the lowest concentration of the antibiotic expressed in mg/l which reduced the growth of the target bacteria by ≥90% (MIC90)."}, "E. coli IH3080": {"tested_on": "E. coli IH3080", "type": "cell-based", "settings": "Escherichia coli, no peptide (None, 0)", "method": "as §1"}, "Kl. pneumoniae 12854": {"tested_on": "Kl. pneumoniae 12854", "type": "cell-based", "method": "as §1"}, "Ps. aeroginosa PAO1": {"tested_on": "Ps. aeroginosa PAO1", "type": "cell-based", "settings": "Pseudomonas aeruginosa, no peptide (None, 0)", "method": "as §1"}, "S. typhi SH5014": {"tested_on": "S. typhi SH5014", "type": "cell-based, Salmonella typhimurium", "method": "as §1"}, "[1]": {"settings": "Experiment IV, read-out: MIC Erythrom."}, "[2]": {"settings": "Experiment II, read-out: MIC Fusidic a."}, "[3]": {"settings": "Experiment III, read-out: MIC Novobiocin"}, "[4]": {"settings": "Experiment I, read-out: MIC Rifampin"}},
  "note": "Read-outs that look alike come from different tables or passages of the source.",
  "data": [
    {"smiles": "CC[C@H]1OC(=O)[C@H](C)[C@@H](O[C@H]2C[C@@](C)(OC)[C@@H](O)[C@H](C)O2)[C@H](C)[C@@H](O[C@@H]2O[C@H](C)C[C@H](N(C)C)[C@H]2O)[C@](C)(O)C[C@@H](C)C(=O)[C@H](C)[C@@H](O)[C@]1(C)O", "note": "[Erythrom., erythromycin]", "values": [
      {"measurement": "MIC", "setting": "E. cloa 12645; [1]", "value": "> 100", "unit": "µg/mL"},
      {"measurement": "MIC", "setting": "E. coli IH3080; [1]", "value": 30, "unit": "µg/mL"},
      {"measurement": "MIC", "setting": "Kl. pneumoniae 12854; Klebsiella pneumoniae, 12854, read-out: MIC Erythrom.", "value": "> 100", "unit": "µg/mL"},
      {"measurement": "MIC", "setting": "Ps. aeroginosa PAO1; [1]", "value": 100, "unit": "µg/mL"},
      {"measurement": "MIC", "setting": "S. typhi SH5014; read-out: MIC Erythromycin.", "value": 100, "unit": "µg/mL"}
    ]},
    {"smiles": "CC(=O)O[C@H]1C[C@@]2(C)[C@@H](C[C@@H](O)[C@H]3[C@@]4(C)CC[C@@H](O)[C@@H](C)[C@@H]4CC[C@@]32C)/C1=C(\\CCC=C(C)C)C(=O)O", "note": "[Fusidic a., fusidic acid]", "values": [
      {"measurement": "MIC", "setting": "E. cloa 12645; [2]", "value": "> 300", "unit": "µg/mL"},
      {"measurement": "MIC", "setting": "E. coli IH3080; [2]", "value": 300, "unit": "µg/mL"},
      {"measurement": "MIC", "setting": "Kl. pneumoniae 12854; Klebsiella pneumoniae, 12854, read-out: MIC Fusidic a.", "value": "> 300", "unit": "µg/mL"},
      {"measurement": "MIC", "setting": "Ps. aeroginosa PAO1; [2]", "value": "> 300", "unit": "µg/mL"},
      {"measurement": "MIC", "setting": "S. typhi SH5014; read-out: MIC Fusidic a.", "value": "> 300", "unit": "µg/mL"}
    ]},
    {"smiles": "CO[C@@H]1[C@@H](OC(N)=O)[C@@H](O)[C@H](Oc2ccc3c(O)c(NC(=O)c4ccc(O)c(CC=C(C)C)c4)c(=O)oc3c2C)OC1(C)C", "note": "[Novobiocin, novobiocin]", "values": [
      {"measurement": "MIC", "setting": "E. cloa 12645; [3]", "value": "> 30", "unit": "µg/mL"},
      {"measurement": "MIC", "setting": "E. coli IH3080; [3]", "value": 30, "unit": "µg/mL"},
      {"measurement": "MIC", "setting": "Kl. pneumoniae 12854; Klebsiella pneumoniae, 12854, read-out: MIC Novobiocin", "value": 30, "unit": "µg/mL"},
      {"measurement": "MIC", "setting": "Ps. aeroginosa PAO1; [3]", "value": "> 30", "unit": "µg/mL"},
      {"measurement": "MIC", "setting": "S. typhi SH5014; read-out: MIC Novobiocin", "value": 30, "unit": "µg/mL"}
    ]},
    {"smiles": "CO[C@H]1/C=C/O[C@@]2(C)Oc3c(C)c(O)c4c(O)c(c(/C=N/N5CCN(C)CC5)c(O)c4c3C2=O)NC(=O)/C(C)=C\\C=C\\[C@H](C)[C@H](O)[C@@H](C)[C@@H](O)[C@@H](C)[C@H](OC(C)=O)[C@@H]1C", "note": "[Rifampin, rifampin]", "values": [
      {"measurement": "MIC", "setting": "E. cloa 12645; [4]", "value": 10, "unit": "µg/mL"},
      {"measurement": "MIC", "setting": "E. coli IH3080; [4]", "value": 10, "unit": "µg/mL"},
      {"measurement": "MIC", "setting": "Kl. pneumoniae 12854; Klebsiella pneumoniae, 12854, read-out: MIC Rifampin", "value": 10, "unit": "µg/mL"},
      {"measurement": "MIC", "setting": "Ps. aeroginosa PAO1; [4]", "value": "> 10", "unit": "µg/mL"},
      {"measurement": "MIC", "setting": "S. typhi SH5014; read-out: MIC Rifampin", "value": 10, "unit": "µg/mL"}
    ]}
  ]
}
